Assay results taken from ChEMBL document CHEMBL1201862, “PubChem BioAssay data set” (2004).
The source made the active and inactive calls.

Legend:
[1] = alpha-synuclein stem-loop luciferase translation blockers – H4 neuroglioma cells, luminescence, confirmation (AID 1988); format: functional, cell-based
Aminopeptidase N = target: T1, Aminopeptidase N (Plasmodium falciparum FcB1/Columbia, UniProt O96935); test: malaria alanyl aminopeptidase activity blockers – biochemical, fluorogenic H-Leu-NHMec substrate, 1536-well (AID 1445); set-up: species or system Plasmodium falciparum 3D7, 3D7
T1 sequence (O96935 whole entry): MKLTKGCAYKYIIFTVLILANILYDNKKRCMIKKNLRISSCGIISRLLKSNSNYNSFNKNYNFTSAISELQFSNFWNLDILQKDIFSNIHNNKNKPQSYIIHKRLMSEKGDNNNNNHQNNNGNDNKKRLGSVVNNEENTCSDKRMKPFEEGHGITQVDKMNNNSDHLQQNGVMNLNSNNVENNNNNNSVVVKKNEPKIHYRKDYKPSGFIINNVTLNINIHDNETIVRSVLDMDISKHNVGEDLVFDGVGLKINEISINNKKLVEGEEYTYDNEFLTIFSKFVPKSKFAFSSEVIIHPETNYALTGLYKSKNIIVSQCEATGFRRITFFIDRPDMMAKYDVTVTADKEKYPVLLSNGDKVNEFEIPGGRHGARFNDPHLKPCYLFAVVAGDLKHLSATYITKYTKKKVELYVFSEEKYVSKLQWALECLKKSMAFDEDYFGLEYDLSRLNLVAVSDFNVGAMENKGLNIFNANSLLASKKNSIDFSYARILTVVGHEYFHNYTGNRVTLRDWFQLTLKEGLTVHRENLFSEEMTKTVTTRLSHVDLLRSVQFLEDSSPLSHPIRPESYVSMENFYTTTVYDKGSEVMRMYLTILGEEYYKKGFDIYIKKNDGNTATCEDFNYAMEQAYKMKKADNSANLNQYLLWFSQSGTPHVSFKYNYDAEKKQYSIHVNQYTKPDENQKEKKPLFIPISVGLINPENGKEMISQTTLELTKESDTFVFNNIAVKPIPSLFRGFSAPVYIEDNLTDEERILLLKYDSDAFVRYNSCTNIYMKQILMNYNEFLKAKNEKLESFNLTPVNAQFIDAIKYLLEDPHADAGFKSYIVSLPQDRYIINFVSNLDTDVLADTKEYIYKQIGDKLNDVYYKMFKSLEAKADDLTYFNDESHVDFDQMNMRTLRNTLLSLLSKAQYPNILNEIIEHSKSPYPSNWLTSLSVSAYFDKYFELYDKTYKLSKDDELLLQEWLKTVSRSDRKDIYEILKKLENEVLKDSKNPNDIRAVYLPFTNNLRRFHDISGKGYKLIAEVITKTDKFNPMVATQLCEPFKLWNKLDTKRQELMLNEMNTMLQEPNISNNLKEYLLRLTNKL

SMILES	EC50 [1]	IC50 (Aminopeptidase N)
CCOC(=O)c1c(-c2ccc(-c3ccccc3)cc2)csc1NC(=O)CNCCN(C)C	9.16 µM (active)	–
N#Cc1c(NC(=O)c2ccc(Br)o2)n(-c2ccccc2)c2nc3ccccc3nc12	–	22.9 µM (active)
